Source: patent publication US11642369B2, “Method for enhancing expression of antioxidant in epidermis” (J-Network, Inc., priority 2020, dated 2023)

Assays:
Diameter of vesicles = type: physicochemical; details: vesicles self-formed in a 2% aqueous solution
Experimental: Sample 62 was added to a medium in the form of refined vesicles. The refined vesicles were prepared in the following manner. […] Among the vesicles obtained by this preparation method, 97.3% had diameters in a range of 20 to 40 nm. In general, for example, the average diameters of vesicles self-formed in a 2% aqueous solution of GDM12 and a 2% aqueous solution of GDS23 are both about 140 nm.

Nrf-2 = assay: Expression of oxidative stress response gene Nrf-2, quantitative real-time PCR; type: cell-based, human; details: NHEM, GDS23 500, 1000, 2000 μM, 6 hours; mRNA corrected with GAPDH, control 100%; FIG. 1
Experimental: (§1) After samples were prepared using normal human epidermal melanocytes, RNA was extracted, and expression and amplification of genes of each of target substances (Nrf-2, PPARG, NQO-1, CAT, and HMOX1) were checked by real-time PCR. PPARG is the genetic code of the protein PPARγ and is one of oxidative stress response genes.
(§2) Sample 1 is a control (no GDS23 added). Samples 2 to 4 are different from one another in the amount of GDS23. • Sample 1: Control (N.C.) • Sample 2: GDS23 (500 μM) • Sample 3: GDS23 (1000 μM) • Sample 4: GDS23 (2000 μM)
(§3) Thereafter, RNA was extracted from the cultured cells for each sample. Reverse transcription of the extracted RNA was performed to generate cDNA, and the quantity of mRNA of each target substance was determined by quantitative real-time PCR expression analysis. GAPDH (glyceraldehyde-3-phosphate dehydrogenase) was used as an internal standard. In the analysis, the mRNA expression level of each target substance was corrected with a value of the expression level of GAPDH as the internal standard in the same sample, and thereafter the correction value for each sample was calculated, assuming the correction value for the control as 100%.

PPARG = assay: Expression of oxidative stress response gene PPARG, quantitative real-time PCR; type: cell-based, human; details: NHEM, GDS23 500, 1000, 2000 μM, 6 hours; mRNA corrected with GAPDH, control 100%; FIG. 2
Experimental: as §1, §2, §3

NQO-1 = assay: Expression of antioxidant enzyme NQO-1, quantitative real-time PCR; type: cell-based, human; details: NHEM, GDS23 500, 1000, 2000 μM, 6 hours; mRNA corrected with GAPDH, control 100%; FIG. 3
Experimental: as §1, §2, §3

CAT = assay: Expression of antioxidant enzyme CAT, quantitative real-time PCR; type: cell-based, human; details: NHEM, GDS23 500, 1000 μM (Samples 1 to 3), 6 hours; mRNA corrected with GAPDH, control 100%; FIG. 4
Experimental: as §1, §2, §3

HMOX1 = assay: Expression of antioxidant enzyme HMOX1, quantitative real-time PCR; type: cell-based, human; details: NHEM, GDS23 500, 1000, 2000 μM, 6 hours; mRNA corrected with GAPDH, control 100%; FIG. 5
Experimental: as §1, §2, §3

glutathione = assay: Expression of antioxidant protein: total glutathione per protein quantity, glutathione reductase recycling method; type: cell-based, human; details: NHEM, GDS23 500 to 4000 μM, 24 hours; control 100%; FIG. 6
Experimental: After samples were prepared using normal human epidermal melanocytes, the quantity of glutathione as an antioxidant protein in cells was checked.
Sample 5 is a control (no GDS23 added). Samples 6 to 9 are different from one another in the amount of GDS23. • Sample 5: Control (N.C.) • Sample 6: GDS23 (500 μM) • Sample 7: GDS23 (1000 μM) • Sample 8: GDS23 (2000 μM) • Sample 9: GDS23 (4000 μM)
Thereafter, for each sample, the protein quantity in epidermal melanocytes and the quantity of total glutathione (GSH+GSSG) were determined by a glutathione reductase recycling method, using an assay kit (TaKaRa BCA Protein Assay Kit: from Takara Bio Inc.). The total quantity of glutathione per protein quantity was obtained from the protein quantity and the total quantity of glutathione determined for each sample, and then an increased ratio for each sample was calculated when an increased ratio for the control was assumed as 100%.

average diameters of vesicles (Diameter of vesicles) | Substance | expression level of Nrf-2 (Nrf-2) | expression level of PPARG (PPARG) | expression level of NQO-1 (NQO-1) | expression level of CAT (CAT) | expression level of HMOX1 (HMOX1) | total quantity of glutathione per protein quantity (glutathione)
about 140 nm | PEG-12 glycerol dimyristate [GDM12] |  |  |  |  |  | 
about 140 nm | PEG-23 glycerol distearate [GDS23] | enhances expression | enhances expression | enhancement of NQO-1 | enhancement of CAT | Enhancement of HMOX1 | promotes production of glutathione
